Measurements: patent US11369110B2, “Compositions and methods for enhancing microbial stability” (NOVOZYMES BIOAG A/S, priority 2013, dated 2022)

Columns and labels:
[1] = tested on: B. elkani SEMIA 587 and B. elkani SEMIA 5019; assay: Liquid inoculant survivability in the presence of insecticide containing benzyl hemi-formal (Example 2); format: cell-based, Bradyrhizobium elkani; details: Table 4
Procedure: The general protocol described in Example 1 was modified to process larger samples. A commercial insecticide containing benzyl hemi-formal was tested at concentrations that would emulate the recommended doses both for the inoculants and the insecticide.
(§1) Sterile 250 ml erlenmeyers containing sterile magnetic stirrers were used instead of test tubes. The commercial insecticide was transferred to a series of erlenmeyers and the stated amounts of microbial stabilizing compounds (yeast extract and soy meal peptone from Merck and tryptophan from Ajinomoto) were premixed at 250 rpm for 6 hours.
To each of the corresponding erlenmeyer flasks, 30 ml of the inoculants (as described in example 1) was added, mixed, and samples were obtained immediately and at 2 hr intervals. Samples were processed as described in Example 1.

[2] = tested on: B. japonicum SEMIA 5079 and B. japonicum SEMIA 5080; assay: Liquid inoculant survivability in the presence of insecticide containing benzyl hemi-formal (Example 5); format: cell-based, Bradyrhizobium japonicum; details: Table 10
Procedure: The general protocol described in Example 4 was modified to process larger samples. A commercial insecticide containing benzyl hemi-formal was tested at concentrations that would emulate the recommended doses both for the inoculants and the insecticide.
as §1
To each of the corresponding erlenmeyer flasks, 30 ml of inoculant (as described in example 4) was added, mixed, and samples were obtained immediately and at 2 hr intervals. Samples were processed as described in Example 4.

[3] = tested on: B. elkani SEMIA 587 and B. elkani SEMIA 5019; assay: Liquid inoculant survivability in the presence of benzyl hemi-formal (Example 1); format: cell-based, Bradyrhizobium elkani; details: at the concentration tested; Table 2
Procedure: (§2) The activity of two microbially stabilizing compounds, yeast extract and albumin, were tested for reducing the effects of the preservative benzyl hemi-formal (at a concentration reflecting that provided by the current recommendation for a commercial insecticide that includes that preservative).
(§3) Using conventional aseptic techniques, 10 ml of a commercial liquid inoculant containing B. elkani SEMIA 587 and B. elkani SEMIA 5019 (Nitragin Optimize II, commercially available from Novozymes) was transferred to a series of sterile test tubes, to which 0.7 ml of a 2% solution containing benzyl hemi-formal was added and, in the corresponding tubes, 0.3 g of Yeast extract (commercially available from Merck) or 0.3 g Albumin (commercially available from SIGMA) were incorporated. A control of bacterial survival consisting of the inoculants without a microbial stabilizing compound was tested for comparison.
(§4) The tubes were mixed using a vortex agitator, transferred to a 30° C. orbital shaker. After 20 minutes incubation (Time 0), 0.1 ml samples were taken, and conventionally diluted 1/10 in a series of tubes containing 0.9 ml of sterile saline solution (0.85% NaCl in distilled water). […] Colonies were counted after seven days incubation. The number of colony forming units per ml (CFU ml^−1) was calculated taking into account the plated dilutions and the plated volume. […]

[4] = tested on: B. japonicum SEMIA 5079 and B. japonicum SEMIA 5080; assay: Liquid inoculant survivability in the presence of benzyl hemi-formal (Example 4); format: cell-based, Bradyrhizobium japonicum; details: at the concentration tested; Table 8
Procedure: as §2
as §3, with “japonicum” for “elkani”, “5079” for “587”, “5080” for “5019”, “CellTech HC,” for “Optimize II,”
as §4

N[C@@H](Cc1c[nH]c2ccccc12)C(=O)O [tryptophan]
Effect on the deleterious effects induced by benzyl hemi-formal containing agrochemical on a microbial population (in words) [1]: reduce the deleterious effects
Effect on the deleterious effects induced by benzyl hemi-formal containing agrochemical on a microbial population (in words) [2]: reduce the deleterious effects

albumin
Effect on the deleterious effects induced by benzyl hemi-formal (in words) [3]: reduce the deleterious effects
Effect on the deleterious effects induced by benzyl hemi-formal (in words) [4]: reduce the deleterious effects
